Experiments:
MOLM-13 [1] = experiment: cells; parameters: species or system AML cell lines (8); Secondary HTS, 10-point dose-response in triplicate, Cell Titer Glo viability, four-parameter fit EC50; settings: Homo sapiens, MOLM-13, 72 h, read-out: MOLM-13
MV4-11 [2] = experiment: cells; parameters: species or system AML cell lines (8); Secondary HTS, 10-point dose-response in triplicate, Cell Titer Glo viability, four-parameter fit EC50; settings: Homo sapiens, MV4-11, 72 h, read-out: MV4-11
CHRF288-11 [3] = experiment: cells; parameters: species or system AML cell lines (8); Secondary HTS, 10-point dose-response in triplicate, Cell Titer Glo viability, four-parameter fit EC50; settings: 72 h, read-out: CHRF288-11
CMK [4] = experiment: cells; parameters: species or system AML cell lines (8); Secondary HTS, 10-point dose-response in triplicate, Cell Titer Glo viability, four-parameter fit EC50; settings: Homo sapiens, CMK, 72 h, read-out: CMK
CMS = experiment: cells; parameters: species or system AML cell lines (8); Secondary HTS, 10-point dose-response in triplicate, Cell Titer Glo viability, four-parameter fit EC50; settings: 72 h, read-out: CMS
M07e = experiment: cells; parameters: species or system AML cell lines (8); Secondary HTS, 10-point dose-response in triplicate, Cell Titer Glo viability, four-parameter fit EC50; settings: M-07e, 72 h, read-out: M07e
ML-2 = experiment: cells; parameters: species or system AML cell lines (8); Secondary HTS, 10-point dose-response in triplicate, Cell Titer Glo viability, four-parameter fit EC50; settings: Homo sapiens, ML-2, 72 h, read-out: ML-2
U937 [5] = experiment: cells; parameters: species or system AML cell lines (8); Secondary HTS, 10-point dose-response in triplicate, Cell Titer Glo viability, four-parameter fit EC50; settings: Homo sapiens, U-937, 72 h, read-out: U937
MOLM-13 [6] = experiment: Secondary dose-response HTS, Cell Titer Glo; format: cell-based, human; settings: Homo sapiens; secondary high-throughput screen; MOLM-13; read-out: average effective concentration, MOLM-13
MV4-11 [7] = experiment: Secondary dose-response HTS, Cell Titer Glo; format: cell-based, human; settings: Homo sapiens; secondary high-throughput screen; MV4-11; read-out: average effective concentration, MV4-11
CHRF288-11 [8] = experiment: Secondary dose-response HTS, Cell Titer Glo; format: cell-based, human; settings: Homo sapiens, HTS; secondary high-throughput screen; CHRF288-11; read-out: average effective concentration, CHRF288-11
U937 [9] = experiment: Secondary dose-response HTS, Cell Titer Glo; format: cell-based, human; settings: Homo sapiens, U-937; secondary high-throughput screen; U937; read-out: average effective concentration, U937
CMK [10] = experiment: Secondary dose-response HTS, Cell Titer Glo; format: cell-based, human; settings: Homo sapiens; secondary high-throughput screen; CMK; read-out: average effective concentration, CMK

Row | Structure (SMILES) | EC50 (MOLM-13 [1]) [µM] | EC50 (MV4-11 [2]) [µM] | EC50 (U937 [5]) [µM] | EC50 (MOLM-13 [6]) [µM] | EC50 (MV4-11 [7]) [µM] | EC50 (U937 [9]) [µM] | EC50 (CHRF288-11 [3]) [µM] | EC50 (CMK [4]) [µM] | EC50 (CMS) [µM] | EC50 (M07e) [µM] | EC50 (ML-2) [µM] | EC50 (CHRF288-11 [8]) [µM] | EC50 (CMK [10]) [µM]
1 | CC1=C(CC(=O)O)c2cc(F)ccc2/C1=C\c1ccc([S+](C)[O-])cc1 (stereo not drawn) | > 10 | > 10 | > 10 | – | – | – | > 10 | > 10 | > 10 | > 10 | > 10 | – | –
2 | C=C1C(=O)O[C@@H](CCC)[C@@H]1C(=O)O (racemic) [SJ000784258, BUTYROLACTONE 3] | 1.8 | > 10 | > 10 | – | – | – | > 10 | > 10 | > 10 | > 10 | > 10 | – | –
3 | CC(C)(C#N)c1cc(Cn2cncn2)cc(C(C)(C)C#N)c1 [ANASTROZOLE] | > 10 | > 10 | > 10 | – | – | – | > 10 | > 10 | > 10 | > 10 | > 10 | – | –
4 | CC(C)c1c(C(=O)Nc2ccccc2)c(-c2ccccc2)c(-c2ccc(F)cc2)n1CC[C@@H](O)C[C@@H](O)CC(=O)O [ATORVASTATIN] | – | – | – | > 10 | > 10 | > 10 | – | > 10 | > 10 | > 10 | > 10 | > 10 | –
5 | Cn1c(=O)n(-c2ccc(C(C)(C)C#N)cc2)c2c3cc(-c4cnc5ccccc5c4)ccc3ncc21 [DACTOLISIB] | > 10 | > 10 | > 10 | – | – | – | > 10 | – | > 10 | > 10 | > 10 | – | 0.066
6 | Cc1nc(C(=O)NCC(=O)O)c(O)c2ccc(Oc3ccccc3)cc12 [FG-4592] | – | > 10 | > 10 | 0.002 | – | – | > 10 | > 10 | > 10 | > 10 | > 10 | – | –
7 | Cc1ccc(NC(=O)c2ccc(CN3CCN(C)CC3)cc2)cc1Nc1nc(-c2cccnc2)cs1 [MASITINIB] | > 10 | – | – | – | > 10 | > 10 | > 10 | > 10 | > 10 | > 10 | > 10 | – | –
8 | Cc1ncc(CNC(=O)N(CCCl)N=O)c(N)n1 [NIMUSTINE] | > 10 | > 10 | > 10 | – | – | – | > 10 | – | > 10 | > 10 | > 10 | – | 10
9 | CCc1nc(N)nc(N)c1-c1ccc(Cl)cc1 [PYRIMETHAMINE] | – | – | > 10 | 4.5 | > 10 | – | > 10 | > 10 | > 10 | > 10 | > 10 | – | –
10 | CNC(=O)c1cc(Oc2ccc(NC(=O)Nc3ccc(Cl)c(C(F)(F)F)c3)c(F)c2)ccn1 [REGORAFENIB] | – | – | > 10 | 1.5 | 0.34 | – | > 10 | > 10 | > 10 | > 10 | > 10 | – | –
11 | Oc1ccc(/C=C/c2cc(O)cc(O)c2)cc1 [RESVERATROL] | – | – | > 10 | 8.9 | > 10 | – | > 10 | > 10 | > 10 | > 10 | > 10 | – | –
12 | CC(C(=O)Nc1cccc(/N=C/c2c(O)ccc3ccccc23)c1)c1ccccc1 (stereo not drawn) [SALERMIDE] | – | > 10 | – | 7 | – | 6.6 | > 10 | > 10 | > 10 | > 10 | > 10 | – | –
13 | CCCC(CCC)C(=O)O [VALPROATE SODIUM] | – | > 10 | > 10 | 0.077 | – | – | > 10 | > 10 | > 10 | > 10 | > 10 | – | –

More lines, main results first:

Row | EC50 (MOLM-13 [1]) [µM] | EC50 (MV4-11 [2]) [µM] | EC50 (U937 [5]) [µM] | EC50 (MOLM-13 [6]) [µM] | EC50 (MV4-11 [7]) [µM] | EC50 (U937 [9]) [µM] | Structure (SMILES) | EC50 (CHRF288-11 [3]) [µM] | EC50 (CMK [4]) [µM] | EC50 (CMS) [µM] | EC50 (M07e) [µM] | EC50 (ML-2) [µM] | EC50 (CHRF288-11 [8]) [µM] | EC50 (CMK [10]) [µM]
14 | > 10 | > 10 | > 10 | – | – | – | OC[C@H]1NC[C@H](O)[C@@H](O)[C@H]1O | > 10 | > 10 | > 10 | > 10 | > 10 | – | –
15 | 0.0727 | 0.046 | 0.134 | – | – | – | COc1ccc(C[C@H](NC(=O)[C@H](C)NC(=O)CN2CCOCC2)C(=O)N[C@@H](Cc2ccccc2)C(=O)C2(C)CO2)cc1 (stereo in doubt) [SJ000834147, ONX-0914] | 0.169 | 0.23 | 0.11 | 0.0789 | 0.0426 | – | –
16 | 5.9 | > 10 | 8.2 | – | – | – | C=C1CCCC2(C)C[C@H]3OC(=O)C(=C)[C@H]3CC12 (stereo in doubt) [SJ000834159, ISOHELENIN] | 6.7 | 5.2 | 5.4 | > 10 | 6.6 | – | –
17 | > 10 | > 10 | > 10 | – | – | – | CCC1(c2ccc(N)cc2)CCC(=O)NC1=O (stereo not drawn) [AMINOGLUTETHIMIDE] | > 10 | > 10 | > 10 | > 10 | > 10 | – | –
18 | > 10 | > 10 | > 10 | – | – | – | S=C(NCc1ccc2c(c1)OCO2)N1CCN(c2ncnc3c2oc2ccccc23)CC1 [AMUVATINIB] | > 10 | > 10 | > 10 | > 10 | > 10 | – | –
19 | > 10 | > 10 | > 10 | – | – | – | Cc1cc([C@@H](C)Nc2ccccc2C(=O)O)c2nc(N3CCOCC3)cc(=O)n2c1 [AZD6482] | > 10 | > 10 | > 10 | > 10 | > 10 | – | –
20 | > 10 | > 10 | > 10 | – | – | – | C[C@H]1C[C@H]2[C@@H]3CCC4=CC(=O)C=C[C@]4(C)[C@@]3(F)[C@@H](O)C[C@]2(C)[C@@]1(O)C(=O)CO [BETAMETHASONE] | > 10 | > 10 | > 10 | > 10 | > 10 | – | –
21 | > 10 | – | > 10 | – | 2.1 | – | C=C(c1ccc(C(=O)O)cc1)c1cc2c(cc1C)C(C)(C)CCC2(C)C [BEXAROTENE] | > 10 | – | > 10 | > 10 | > 10 | – | 8.1
22 | > 10 | > 10 | > 10 | – | – | – | CCC(C)n1ncn(-c2ccc(N3CCN(c4ccc(OCC5COC(Cn6cncn6)(c6ccc(Cl)cc6Cl)O5)cc4)CC3)cc2)c1=O (stereo not drawn) [ITRACONAZOLE] | > 10 | – | > 10 | > 10 | > 10 | – | 6.4
23 | – | > 10 | > 10 | > 10 | – | – | CC[C@H](C)C(=O)O[C@H]1C[C@@H](C)C=C2C=C[C@H](C)[C@H](CC[C@@H]3C[C@@H](O)CC(=O)O3)[C@H]21 [LOVASTATIN] | – | > 10 | > 10 | > 10 | > 10 | 6.3 | –
24 | – | > 10 | > 10 | 8.9 | – | – | CC[C@H](C)C(=O)O[C@H]1CCC=C2C=C[C@H](C)[C@H](CC[C@@H]3C[C@@H](O)CC(=O)O3)[C@H]21 [MEVASTATIN] | – | > 10 | > 10 | > 10 | > 10 | 6.6 | –

Reference: PMC6522510 (Nature Communications, 2019)
